A word on the melting point: it is the temperature of the solid-liquid transition.

Each structure is given as a SMILES string.

For the compound `CCC(CC)n1c(=O)[nH]c2c(Oc3c(C)cc(C)cc3C)nc(C)cc21` [Example 4, 1-(1-Ethylpropyl)-6-methyl-4-(2,4,6-trimethylphenoxy)-1,3-dihydro-imidazo[4,5-c]pyridin-2-one], the melting point was 235 to 237 °C.

Values taken from patent US6992188B1, “Substituted heterocyclic derivatives” (Pfizer, Inc., priority 1995, dated 2006).
